Experimental data as given in patent publication US20060142171A1, “Novel alkaline protease” (priority 2003, published 2006).
Starred links: 1 amine or outer side, 2 acyl side, 3 side chain; linkers in the order of their positions; H or OH if unused. Non-standard residues stand in square brackets, D forms with d. Residues, ends and D or L forms follow the SMILES beside them. *: point of attachment. Sta = CC(C)C[C@H](N)[C@@H](O)CC(=O)O; pNA = O=[N+]([O-])c1ccc(N*)cc1; Suc = O=C(CCC(=O)[*:2])[*:1]; Isovaleryl = CC(C)CC(=O)*

Assays:
AL protease [1] = biological target: T1, AL protease (Nesterenkonia aethiopica, UniProt D0VWT7); assay: Assay with synthetic peptide, pNA, AMC, NNap and ester substrates (kinetic parameters); format: biochemical, Nesterenkonia sp. AL; details: for Hydrolysis of synthetic substrate by AL protease: result in words
Experimental: The AL protease activity toward a variety of commercially available synthetic peptide substrates was assayed. The incubation volume was always 1 ml in which 10 μl enzyme solution; 0.76 mg protein/ml was used unless otherwise stated. Initial reaction rates were fitted to the Michaelis-Menten equation, and kinetic parameters, kcat and Km were determined.
Fluorometric assay for Suc-L-Y-AMC, Suc-A-A-F-AMC, Suc-I-I-W-AMC, Suc-A-A-K-AMC, NA-Bz-R-AMC, Suc-L-L-V-Y-AMC, Suc-F-G-L-β-NNap, Suc-L-β-NNap (Sigma) was performed in 50 mM glycine-NaOH buffer, pH 10 at 25° C. The substrate concentration range was from 0.05 to 10 mM except for Suc-L-L-V-Y-AMC (0.1-25 μM). Fluorescence was monitored with a SPEX Fluorolog spectrometer, in a 1×1 cm quartz cuvette placed in a thermostat cuvette holder, using excitation wavelength of 345 nm, emission wavelength 442 nm slit width 5 nm for AMC substrate and excitation wavelength of 340 nm, emission wavelength of 410 and slit width 5 nm for β-NNap substrates. A standard solution of AMC and β-naphthylamine was used to convert the fluorescence values to product concentrations.
Activity with p-nitroanilide substrates was tested at 25° C. in 50 mM Tris-HCl buffer, pH 9. Following substrates were used: Bz-Tyr-pNA (Sigma), BAPNA, Suc-Phe-pNA, Suc-A-A-P-F-pNA, Suc-A-A-P-L-pNA, Suc-G-G-G-pNA, Suc-A-A-A-pNA, Suc-A-A-V-pNA (Bachem Feinchemikalien AG (Bubendorf, Switzerland), and S-benzyl-L-cysteine-4-nitroanilide (Fluka Chemie AG, Buchs, Switzerland). The release of p-nitroanilide (pNA) was measured at 410 nm. Extinction coefficient (E) of pNA was taken to be 8480 M^−1 cm^−1. Initial reaction rates were determined over a concentration range of 0.05-10 mM for most substrates, excluding Suc-A-A-P-L-pNA (0.05-20 mM), and S-benzyl-L-Cysteine-4-nitroanilide (0.05-80 mM).
Hydrolytic activity of the enzyme on the ester substrates, BAEE, BTEE, Bz-F-NE, p-nitrophenyl acetate, p-nitrophenyl butyrate and Suc-F-L-F-SBzl (Sigma) was examined spectrophotometrically at 410 nm (ε410=900 M^−1cm^−1) in 50 mM Tris-HCl buffer, pH 9 at 25° C. and 50° C. respectively. The substrates concentration range between 0.05 to 10 mM. The Initial hydrolysis of BAEE, Suc-F-L-F-SBzl was followed at 253 nm (ε253=1150 M^−1cm^−1) and BTEE at 259 nm (ε259=964 M^−1cm^−1), at which their extinction coefficients were taken in calculation.
Due to the poor aqueous solubility of some of the substrates, their stock solutions were prepared in organic solvents, and further dilution was done with the used buffer. Suc-F-G-L-β-NNap, Suc-L-L-V-Y-AMC, Suc-L-Y-AMC, Suc-A-A-F-AMC, Suc-I-I-W-AMC, Suc-A-A-K-AMC, NA-Bz-R-AMC and Bz-Tyr-pNA, Suc-F-L-F-SBzl and Bz-F-βNE were dissolved in dimethylsulfoxide (DMSO), Suc-Phe-pNA, BTEE and BAPNA in ethanol, Suc-A-A-A-pNA in N,N-dimethylformamide (DMF), and Bz-Cys-NA in acetonitrile.
In these cases the kcat/Km was calculated from velocity measurements at low substrate concentration [S]<<Km, where v=(kcat/Km)[E]0 [S].

AL protease [2] = biological target: T1, AL protease; assay: biochemical; format: biochemical, Nesterenkonia sp. AL
Experimental: (§1) Protease activity was determined using casein as substrate as described earlier [3.12]. The reaction mixture in a total volume of 2 ml was composed of 1% casein, 50 mM glycine-NaOH buffer, pH 10, and appropriately diluted enzyme. After 20 min incubation at 50° C. the reaction was terminated by adding equal volume of 10% trichloroacetic acid (TCA). After separation of the unreacted casein precipitate by centrifugation, 0.5 ml of clear supernatant was mixed with 2.5 ml of 0.5 M Na2CO3 and 0.5 ml of 1 N Folin-Ciocalteau's phenol reagent. After 30 min at 25° C., absorbance was measured at 660 nm against a reagent blank. One unit of protease activity was defined as the amount of enzyme that released 1 μg of amino acid equivalent to tyrosine per min under the standard assay conditions.
(§2) AL protease was also not inhibited by inhibitors of cysteine proteases, aspartate proteases and metal proteases (Table 5). The effect of another serine protease specific inhibitor, 3,4-dichlorocoumarin at a concentration of 100 μM on the protease activity was investigated.

AL-89 protease = assay: Effect of protease inhibitors on AL-89 protease activity; format: biochemical, Bacillus pseudofirmus AL-89; details: for Remaining activity (%): AL-89 protease, incubated 1 h at 30° C.
Experimental: as §1, §2

[3] = substrate marked b (footnote not given), pNA and ester substrates, 50 mM Tris-HCl buffer, pH 9
[4] = AL protease, inhibitor 10 mM, incubated 1 h at 30° C.
[5] = substrate marked a (footnote not given), AMC substrate, 50 mM glycine-NaOH buffer, pH 10 at 25° C.

T1 sequence (D0VWT7 entry or part of it): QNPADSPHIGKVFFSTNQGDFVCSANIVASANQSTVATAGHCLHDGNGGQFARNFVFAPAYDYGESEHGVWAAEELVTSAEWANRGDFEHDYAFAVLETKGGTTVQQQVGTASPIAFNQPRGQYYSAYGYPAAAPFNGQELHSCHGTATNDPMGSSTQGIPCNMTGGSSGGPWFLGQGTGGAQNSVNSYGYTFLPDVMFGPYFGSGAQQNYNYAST

N-Succinyl-Ala-Ala-Ala-p-nitroanilide [Suc-A-A-A-pNA]
Hydrolysis of synthetic substrate by AL protease (AL protease [1]): unable to hydrolyze

N-succinyl-Ala-Ala-Pro-Leu-p-nitroanilide (Suc-AAPL-pNA; SMILES CC(C)C[C@H](NC(=O)[C@@H]1CCCN1C(=O)[C@H](C)NC(=O)[C@H](C)NC(=O)CCC(=O)O)C(=O)Nc1ccc([N+](=O)[O-])cc1) [Suc-A-A-P-L-pNA]
Hydrolysis of synthetic substrate by AL protease (AL protease [1]): remarkable hydrolyzing activity
Km (AL protease [1]; [3]): 9300 µM
kcat (AL protease [1]; [3]): 6646.19 s⁻¹

N-succinyl-Ala-Ala-Pro-Phe-p-nitroanilide (Suc-AAPF-pNA) [Suc-A-A-P-F-pNA]
Hydrolysis of synthetic substrate by AL protease (AL protease [1]): remarkable hydrolyzing activity
Km (AL protease [1]; [3]): 2970 µM
kcat (AL protease [1]; [3]): 4391.46 s⁻¹

c1cnc2c(c1)ccc1cccnc12 [1,10-Phenanthroline]
remaining activity at 10000 µM (AL protease [2]; [4]): 113%
Remaining activity (%) (AL-89 protease; inhibitor 10 mM): 75%

CC(=O)Oc1ccc([N+](=O)[O-])cc1 [p-nitrophenyl acetate]
Hydrolysis of synthetic substrate by AL protease (AL protease [1]): unable to cleave

N-succinyl-Leu-Leu-Val-Tyr-7-amino-4-methyl coumarin [Suc-L-L-V-Y-AMC]
kcat/Km higher than that for Suc-A-A-P-F-pNA and Suc-A-A-P-L-pNA (AL protease [1]; AL protease): 2.5-5 fold
Hydrolysis of synthetic substrate by AL protease (AL protease [1]): remarkable hydrolyzing activity
Km (AL protease [1]; [5]): 15 µM
kcat (AL protease [1]; [5]): 51.68 s⁻¹

CC(C)CC(=O)N[C@H](C(=O)N[C@H](C(=O)N[C@@H](CC(C)C)[C@@H](O)CC(=O)N[C@@H](C)C(=O)N[C@@H](CC(C)C)[C@@H](O)CC(=O)O)C(C)C)C(C)C [Pepstatin] (Isovaleryl-VV[Sta]A[Sta]-OH)
remaining activity at 100 µM (AL protease [2]; AL protease, inhibitor 0.1 mM, incubated 1 h at 30° C.): 102%
Remaining activity (%) (AL-89 protease; inhibitor 0.1 mM): 100%

N-succinyl-Ala-Ala-Val-p-nitroanilide (Suc-Ala-Ala-Val-pNA; SMILES CC(C)[C@H](NC(=O)[C@H](C)NC(=O)[C@H](C)NC(=O)CCC(=O)O)C(=O)Nc1ccc([N+](=O)[O-])cc1) [Suc-A-A-V-pNA]
Hydrolysis of synthetic substrate by AL protease (AL protease [1]): unable to hydrolyze

N=C(N)NCCCC(NC(=O)c1ccccc1)C(=O)Nc1ccc([N+](=O)[O-])cc1 (racemic) [BAPNA, Nα-benzoyl-D,L-arginine-p-nitroanilide]
Hydrolysis of synthetic substrate by AL protease (AL protease [1]): did not show detectable activity

O=C(O)c1cc[c]([Hg][Cl])cc1 [PCMBA]
Remaining activity (%) (AL protease [2]; AL protease, inhibitor 5 mM, incubated 1 h at 30° C.): 99%
Remaining activity (%) (AL-89 protease; inhibitor 5 mM): 91%

O=S(=O)(F)Cc1ccccc1 [PMSF, phenyl-methanesulfonyl fluoride]
Remaining activity (%) (AL protease [2]; AL protease, inhibitor 1 mM, incubated 1 h at 30° C.): 100%
Remaining activity (%) (AL protease [2]; [4]): 108%
Inhibition of AL protease activity (AL protease [2]; result in words, PMSF up to 10 mM, others at concentrations of Table 5): did not inhibit
Remaining activity (%) (AL-89 protease; inhibitor 1 mM): 0%
Remaining activity (%) (AL-89 protease; inhibitor 10 mM): 0%
Inhibition of AL-89 protease activity (AL-89 protease; result in words, 1 mM): totally inhibited

O=C(O)CN(CCN(CC(=O)O)CC(=O)O)CC(=O)O [EDTA, ethylenediamino tetraacetate]
Remaining activity (%) (AL protease [2]; [4]): 99%
Remaining activity (%) (AL-89 protease; inhibitor 10 mM): 98%

O=C(O)CCC(=O)N[C@@H](Cc1ccccc1)C(=O)Nc1ccc([N+](=O)[O-])cc1 [Suc-Phe-pNA, N-succinyl-phenylalanine-p-nitroanilide]
Hydrolysis of synthetic substrate by AL protease (AL protease [1]): did not show detectable activity

N-succinyl-Gly-Gly-Gly-p-nitroanilide (Suc-Gly-Gly-Gly-pNA; SMILES O=C(O)CCC(=O)NCC(=O)NCC(=O)NCC(=O)Nc1ccc([N+](=O)[O-])cc1) [Suc-G-G-G-pNA]
Hydrolysis of synthetic substrate by AL protease (AL protease [1]): unable to hydrolyze
